Values after ≈ are worked out from the molar mass of the structure shown. Like-named read-outs stand apart in the source and are kept apart here.
Assays:
Type in all cases: cell-based
[1] = system: Gram -; test: MIC test, average over the 15 gram-negative test germs; conditions: 24 h
Summary of the method: (§1)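 TSA agar dilution, 2-fold series of compound (from 2560 µg/ml DMSO/NaOH stock; 64 µg/ml/dish top), inoculum 1-2.10⁷ cfu/ml in peptonized water, 35°C 24 h. MIC read as lowest conc. with no visible growth.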

[2] = system: Staphylococcus epidermidis HCF Berset C.; test: MIC test, agar dilution with Steers multiwell inoculator; conditions: TSA dishes, 24 h at 35°C, read-out: Minimum Inhibiting Concentration
Summary of the method: as §1

[3] = system: Staphylococcus aureus MPR 5; test: as above; conditions: MPR5, TSA dishes, 24 h at 35°C, read-out: Minimum Inhibiting Concentration
Summary of the method: as §1

[4] = system: Escherichia coli CNUR 8; test: as above; conditions: CNUR8, TSA dishes, 24 h at 35°C, read-out: Minimum Inhibiting Concentration
Summary of the method: as §1

[5] = system: Acinebacter calcoloaceticus OSMPV 1130; test: as above; conditions: TSA dishes, 24 h at 35°C, read-out: Minimum Inhibiting Concentration
Summary of the method: as §1

[6] = system: Escherichia coli ISF 432; test: as above; conditions: ISF432, TSA dishes, 24 h at 35°C, read-out: Minimum Inhibiting Concentration
Summary of the method: as §1

[7] = system: Klebsiella pneumoniae ATCC 10031; test: as above; conditions: ATCC10031, TSA dishes, 24 h at 35°C, read-out: Minimum Inhibiting Concentration
Summary of the method: as §1

[8] = system: Staphylococcus aureus ATCC 6538; test: as above; conditions: ATCC6538, TSA dishes, 24 h at 35°C, read-out: Minimum Inhibiting Concentration
Summary of the method: as §1

[9] = system: Pseudomonas aeruginosa CNUR 2; test: as above; conditions: CNUR2, TSA dishes, 24 h at 35°C, read-out: Minimum Inhibiting Concentration
Summary of the method: as §1

[10] = system: Streptococcus facealis LEP Br.; test: as above; conditions: TSA dishes, 24 h at 35°C, read-out: Minimum Inhibiting Concentration
Summary of the method: as §1

[11] = system: Pseudomonas aeruginosa ATCC 9027; test: as above; conditions: ATCC9027, TSA dishes, 24 h at 35°C, read-out: Minimum Inhibiting Concentration
Summary of the method: as §1

[12] = system: Escherichia coli 120; test: as above; conditions: TSA dishes, 24 h at 35°C, read-out: Minimum Inhibiting Concentration
Summary of the method: as §1

[13] = system: Providencia stuardii CNUR 5; test: as above; conditions: CNUR5, TSA dishes, 24 h at 35°C, read-out: Minimum Inhibiting Concentration
Summary of the method: as §1

[14] = system: Enterobacter cloacae OMNF 1153; test: as above; conditions: OMNF1153, TSA dishes, 24 h at 35°C, read-out: Minimum Inhibiting Concentration
Summary of the method: as §1

[15] = system: Escherichia coli CNUR 1; test: as above; conditions: CNUR1, TSA dishes, 24 h at 35°C, read-out: Minimum Inhibiting Concentration
Summary of the method: as §1

[16] = system: Enterobacter cloacae OMNF 1174; test: as above; conditions: OMNF1174, TSA dishes, 24 h at 35°C, read-out: Minimum Inhibiting Concentration
Summary of the method: as §1

[17] = system: Staphylococcus epidermidis CPHL A2; test: as above; conditions: CPHLA2, TSA dishes, 24 h at 35°C, read-out: Minimum Inhibiting Concentration
Summary of the method: as §1

[18] = system: Shighella enteritidis; test: as above; conditions: TSA dishes, 24 h at 35°C, read-out: Minimum Inhibiting Concentration
Summary of the method: as §1

[19] = system: Pseudomonas aeruginosa CNUR 4; test: as above; conditions: CNUR4, TSA dishes, 24 h at 35°C, read-out: Minimum Inhibiting Concentration
Summary of the method: as §1

[20] = system: Proteus vulgaris CNUR 6; test: as above; conditions: CNUR6, TSA dishes, 24 h at 35°C, read-out: Minimum Inhibiting Concentration
Summary of the method: as §1

[21] = system: Escherichia coli ATCC 8739; test: as above; conditions: ATCC8739, TSA dishes, 24 h at 35°C, read-out: Minimum Inhibiting Concentration
Summary of the method: as §1

[22] = system: Gram +; test: MIC test, average over the 5 gram-positive test germs; conditions: 24 h
Summary of the method: as §1

[23] = geometrical average of the MIC over the 15 Gram - strains, read-out: Geometrical Average
[24] = mean log of the MIC over the 15 Gram - strains, read-out: Log (converted)
[25] = geometrical average of the MIC over the 5 Gram + strains, read-out: Geometrical Average

SMILES	MIC [1, 23] [mg/L]	MIC [1, 24] [mg/L]	MIC [2] [mg/L]	MIC [3] [mg/L]	MIC [4] [mg/L]	MIC [5] [mg/L]	MIC [6] [mg/L]	MIC [7] [mg/L]	MIC [8] [mg/L]	MIC [9] [mg/L]	MIC [10] [mg/L]	MIC [11] [mg/L]	MIC [12] [mg/L]	MIC [13] [mg/L]	MIC [14] [mg/L]	MIC [15] [mg/L]	MIC [16] [mg/L]	MIC [17] [mg/L]	MIC [18] [mg/L]	MIC [19] [mg/L]	other results
CN1CCN(c2cc3c(cc2N)c(=O)c(C(=O)O)cn3C(C)(C)C)CC1 [Compound 44, 6-amino-1-terbutyl-7-(4-methyl-1-piperazinyl)-1,4-dihidro-4-oxo-quinoline carboxylic acid]	1.73 (≈ 4.82 µM)	1.73 (≈ 4.81 µM)	4 (≈ 11.2 µM)	2 (≈ 5.58 µM)	0.5 (≈ 1.39 µM)	4 (≈ 11.2 µM)	0.06 (≈ 0.167 µM)	0.06 (≈ 0.167 µM)	2 (≈ 5.58 µM)	32 (≈ 89.3 µM)	32 (≈ 89.3 µM)	4 (≈ 11.2 µM)	0.5 (≈ 1.39 µM)	4 (≈ 11.2 µM)	2 (≈ 5.58 µM)	1 (≈ 2.79 µM)	1 (≈ 2.79 µM)	2 (≈ 5.58 µM)	1 (≈ 2.79 µM)	128 (≈ 357 µM)	MIC [20]: 128 mg/L (≈ 357 µM); MIC [21]: 0.06 mg/L (≈ 0.167 µM); MIC ([22]; read-out: Log (converted)): 4 mg/L (≈ 11.2 µM)
CC(C)(C)n1cc(C(=O)O)c(=O)c2cc(N)c(N3CCSCC3)cc21 [Compound 46, 6-amino-1-terbutyl-7-(1-thiomorpholinyl)-1,4-dihydro-4-oxo-quinoline carboxylic acid]	1.31 (≈ 3.62 µM)	1.31 (≈ 3.62 µM)	0.5 (≈ 1.38 µM)	0.25 (≈ 0.692 µM)	0.25 (≈ 0.692 µM)	0.5 (≈ 1.38 µM)	0.03 (≈ 0.083 µM)	0.03 (≈ 0.083 µM)	0.25 (≈ 0.692 µM)	16 (≈ 44.3 µM)	8 (≈ 22.1 µM)	4 (≈ 11.1 µM)	0.25 (≈ 0.692 µM)	4 (≈ 11.1 µM)	2 (≈ 5.53 µM)	1 (≈ 2.77 µM)	2 (≈ 5.53 µM)	0.5 (≈ 1.38 µM)	2 (≈ 5.53 µM)	128 (≈ 354 µM)	MIC [20]: 128 mg/L (≈ 354 µM); MIC [21]: 0.06 mg/L (≈ 0.166 µM); MIC [22, 25]: 0.66 mg/L; MIC ([22]; read-out: Log (converted)): 0.659 mg/L (≈ 1.82 µM)
CC(C)(C)n1cc(C(=O)O)c(=O)c2cc(N)c(N3CCc4ccccc4C3)cc21 [Compound 47, 6-amino-1-terbutyl-7-[2-(1,2,3,4-tetrahydroisoquinolinyl)]-1,4-dihydro-4-oxo-quinoline carboxylic acid]	4.77 (≈ 12.2 µM)	4.78 (≈ 12.2 µM)	1 (≈ 2.55 µM)	0.5 (≈ 1.28 µM)	2 (≈ 5.11 µM)	2 (≈ 5.11 µM)	0.12 (≈ 0.307 µM)	0.12 (≈ 0.307 µM)	0.25 (≈ 0.639 µM)	64 (≈ 163 µM)	8 (≈ 20.4 µM)	32 (≈ 81.7 µM)	2 (≈ 5.11 µM)	4 (≈ 10.2 µM)	16 (≈ 40.9 µM)	8 (≈ 20.4 µM)	8 (≈ 20.4 µM)	0.5 (≈ 1.28 µM)	8 (≈ 20.4 µM)	128 (≈ 327 µM)	MIC [20]: 128 mg/L (≈ 327 µM); MIC [21]: 0.12 mg/L (≈ 0.307 µM); MIC [22, 25]: 0.871 mg/L; MIC ([22]; read-out: Log (converted)): 0.871 mg/L (≈ 2.22 µM)
CC(C)(C)n1cc(C(=O)O)c(=O)c2cc(N)c(N3CCN(c4ccccn4)CC3)cc21 [Compound 48, 6-amino-1-terbutyl-7-[4-(2-pyridyl)-1-piperazinyl]-1,4-dihydro-4-oxo-quinoline carboxylic acid]	19.2 (≈ 45.7 µM)	19.2 (≈ 45.6 µM)	2 (≈ 4.74 µM)	1 (≈ 2.37 µM)	16 (≈ 38 µM)	1 (≈ 2.37 µM)	0.5 (≈ 1.19 µM)	0.25 (≈ 0.593 µM)	1 (≈ 2.37 µM)	128 (≈ 304 µM)	16 (≈ 38 µM)	128 (≈ 304 µM)	16 (≈ 38 µM)	128 (≈ 304 µM)	128 (≈ 304 µM)	64 (≈ 152 µM)	64 (≈ 152 µM)	1 (≈ 2.37 µM)	64 (≈ 152 µM)	128 (≈ 304 µM)	MIC [20]: 128 mg/L (≈ 304 µM); MIC [21]: 0.5 mg/L (≈ 1.19 µM); MIC [22, 25]: 2 mg/L; MIC ([22]; read-out: Log (converted)): 2 mg/L (≈ 4.74 µM)
CN1CCN(c2cc3c(cc2N)c(=O)c(C(=O)O)cn3-c2ccc(F)cc2)CC1 [Compound 50]	3.47 (≈ 8.76 µM)	3.48 (≈ 8.77 µM)	8 (≈ 20.2 µM)	4 (≈ 10.1 µM)	0.5 (≈ 1.26 µM)	16 (≈ 40.4 µM)	0.25 (≈ 0.631 µM)	0.12 (≈ 0.303 µM)	8 (≈ 20.2 µM)	32 (≈ 80.7 µM)	64 (≈ 161 µM)	8 (≈ 20.2 µM)	0.5 (≈ 1.26 µM)	4 (≈ 10.1 µM)	4 (≈ 10.1 µM)	4 (≈ 10.1 µM)	4 (≈ 10.1 µM)	8 (≈ 20.2 µM)	4 (≈ 10.1 µM)	128 (≈ 323 µM)	MIC [20]: 128 mg/L (≈ 323 µM); MIC [21]: 0.25 mg/L (≈ 0.631 µM); MIC [22, 25]: 10.6 mg/L; MIC ([22]; read-out: Log (converted)): 10.5 mg/L (≈ 26.6 µM)
CN1CCN(c2c(F)cc3c(=O)c(C(=O)O)cn4c3c2SCC4)CC1 [RUFLOXACIN, reference compound]	1.31 (≈ 3.61 µM)	1.31 (≈ 3.61 µM)	2 (≈ 5.5 µM)	1 (≈ 2.75 µM)	0.5 (≈ 1.38 µM)	2 (≈ 5.5 µM)	0.06 (≈ 0.165 µM)	0.12 (≈ 0.33 µM)	0.5 (≈ 1.38 µM)	32 (≈ 88.1 µM)	8 (≈ 22 µM)	8 (≈ 22 µM)	0.25 (≈ 0.688 µM)	2 (≈ 5.5 µM)	1 (≈ 2.75 µM)	0.5 (≈ 1.38 µM)	0.5 (≈ 1.38 µM)	1 (≈ 2.75 µM)	0.5 (≈ 1.38 µM)	64 (≈ 176 µM)	MIC [20]: 16 mg/L (≈ 44 µM); MIC [21]: 0.5 mg/L (≈ 1.38 µM); MIC [22, 25]: 1.51 mg/L; MIC ([22]; read-out: Log (converted)): 1.52 mg/L (≈ 4.17 µM)
